Data taken from patent US20220016241A1, “COMPOSITIONS AND METHODS FOR REDUCING ANTIGEN-SPECIFIC IMMUNOGENICITY” (The Research Foundation for The State University of New York, priority 2013, published 2022).

Key:
anti-GAA total titers = test: OPLS-GAA sequential administration study; type: in vivo, Mice; details: for Total titers (ELISA), week 11 after re-challenge: rechallenge 4 weekly 1 μg rhGAA; for Total titers (ELISA), week 6: 4 weekly sc
Description: This examples describes OPLS-GAA sequential administration study. To determine if OPLS can exert its immunomodulatory effects on the immune response to GAA when the two are administered in separate spaced injections, at the same injection site the following experiments were carried out. Mice (n=6 animals/group) were immunized with 4 weekly sc injections as follows. One group of animals received one single combined injection of 5 mg OPLS and 1 μg rhGAA(100 μl volume). Recombinant human GAA was produced by Creative Biomart. The second group received one injection of 5 mg OPLS (100 μl volume) then after a 5 minute wait they received a second injection of 1 μg rhGAA in sterile TRIS (100 μl volume) in the same injection site. The final control group received one injection of sterile TRIS (100 μl volume) then after a 5 minute wait they received a second injection of 1 μg rhGAA in sterile TRIS (100 μl volume) in the same injection site. After a two week rest period a saphenous blood sample was collected. All of the mice were then rechallenged with 4 weekly injections of 1 μg of rhGAA in 100 μl sterile TRIS (one single injection). Analysis was done by ELISA for total titers. The mean free GAA after 6 weeks was 3135±910, When co-administered, the GAA was 787±155, and when administered separately (sequentially), the GAA was 926±202 (FIG. 26). After re-challenge, terminal sampling was done at week 11. The mean free GAA after 11 weeks was 8775±2363, When co-administered, the GAA was 895±335, and when administered separately (sequentially), the GAA was 1884±761. […] Either administration method was able to induce a hypo-responsiveness towards GAA.

anti-IgG antibody titers = test: Effect of OPLS on human IgG immunogenicity; type: in vivo, mice; details: 0.4 mg OPLS with 1 μg human IgG s.c., days 1, 8, 10, 12
Description: Materials and Methods: 8 animals were used for this pilot study, 4 animals were injected with Human-IgG (Sigma) alone (1 μg) or with Human IgG plus OPLS (1 μg human IgG plus 0.4 mg OPLS). The study was done with 4 injections over 2 weeks period as follows: day 1, day 8, day 10 and day 12 followed by a 3 days washout period. ELISA was done to measure total titers. Briefly, Nunc-Maxisorb 96-well plates were coated overnight at 4° C. with 50 μl/well of 2.5 μg/ml Human IgG. Plates were then washed and blocked with 1% bovine serum albumin (blocking buffer). 50 μl/well of various dilutions of the sample were added to the plate and incubated at room temperature for 2 h. Plasma samples from animals exposes to a sham treatment (buffer only) served as controls. The plates were then washed and incubated with 50 μl of goat anti-mouse anti-body-HRP conjugate at a 1:50000 dilution in blocking buffer at room temperature for 1 h. Color was developed for 20 min with 100 μl of TMB solution. 100 μl of 2 N H2SO4 was used to stop the reaction. Optical density at […] was measured using a plate reader. Non-responders were given the value of the plate specific factor for uniformity.
In this pilot study, animals were injected with Human-IgG (Sigma) alone (1 μg) or with OPLS […]. […]

TNF-α = test: Cytokine profile of BMDCs in vitro, TNF-α ELISA; type: cell-based, HA mice; details: 1 μg/ml FVIII with 50 mM OPLS, 48 hours, n=4
Description: Generation of bone marrow derived dendritic cells (BMDC): Bone marrow was isolated from 6 to 8 week old naïve HA. Briefly, bone marrow was cultured in RPMI media supplemented with […] (low endotoxin), 2-mercaptoethanol, Pen/Strep and […] GMCSF. Media was changed on days 3, 6 and 8 of culture and DCs were used on day 9. BMDC are then harvested and used as needed. To verify the differentiation of bone marrow cells into DCs, CD11c surface expression was confirmed by flow cytometry using anti-CD11c-FITC antibody with appropriate isotope controls.
Effects of OPLS on cytokine profile of BMDCs in vitro: The effects of OPLS on cytokine secretion by dendritic cells were investigated. On day 9 BMDCs, generated as above, were treated with FVIII as an antigen in the presence of increasing dose of OPLS. Changes in production of pro-inflammatory cytokines TNF-α and IL12p70 as well as the regulatory cytokine TGF-β were monitored as a function of dose. BMDCs were exposed to 1 μg/ml FVIII with increasing dose of OPLS (0, 0.5, 1, 10, 25, 50 mM). 1 M stock of OPLS was prepared by adding the appropriate amount of OPLS directly to RPMI media, and pH was adjusted using sterile 3N and 1N NaOH. […] TGF-β, TNF-α and IL-12p70 concentrations were determined using standard ELISA (R&D System Inc. Minneapolis, Minn., USA or Invitrogen […], Calif.).

[1] = Plasma creatine kinase and injection site after 28 daily s.c. injections of OPLS; type: in vivo, CD-1 mice
Excerpt: FIG. 22. Plasma Creatine Kinase (CK: an enzyme with high expression in myocytes, elevation of plasma CK is an indication of damage to muscle tissue) activity levels after 28 daily s.c. injections of OPLS to CD-1 mice.

Compound: N[C@@H](COP(=O)(O)O)C(=O)O [OPLS, O-Phospho-L-Serine]
- Total titers (ELISA), week 11 after re-challenge (anti-GAA total titers; co-administered with 5 mg OPLS): 895±335
- Total titers (ELISA), week 6 (anti-GAA total titers; co-administered: single combined injection 5 mg OPLS and 1 μg rhGAA): 787±155
- Total titers (ELISA), week 11 after re-challenge (anti-GAA total titers; sequential, 5 mg OPLS 5 min before GAA): 1884±761
- Total titers (ELISA), week 6 (anti-GAA total titers; sequential: 5 mg OPLS then 1 μg rhGAA 5 min later, same site): 926±202
- Anti-IgG antibody titers vs IgG alone (anti-IgG antibody titers): lower
- TNF-α production by BMDC (TNF-α): substantial reduction
- Plasma creatine kinase activity vs vehicle [1]: No statistical significance
- Injection site pathology at necropsy ([1]; macroscopic evaluation): No visible injection site pathology
